Measured values as given in ChEMBL document CHEMBL4020738, “Antioxidant and anticholinesterase potential of diterpenoid alkaloids from Aconitum heterophyllum” (Bioorg Med Chem, 2017).

What was measured:
[1] = Antioxidant activity assessed as inhibition of DPPH free radical at 50 uM after 30 mins relative to control; assay type: functional
[2] = Antioxidant activity assessed as inhibition of DPPH free radical at 125 uM after 30 mins relative to control; assay type: functional
[3] = Antioxidant activity assessed as inhibition of DPPH free radical at 75 uM after 30 mins relative to control; assay type: functional
[4] = Antioxidant activity assessed as inhibition of DPPH free radical at 100 uM after 30 mins relative to control; assay type: functional
[5] = target: Acetylcholinesterase (Electrophorus electricus, UniProt O42275); test: Inhibition of electric eel AChE using acetylthiocholine iodide as substrate preincubated for 15 mins followed by substrate addition by spectrophotometric method
[6] = Antioxidant activity assessed as inhibition of DPPH free radical after 30 mins; assay type: functional
[7] = target: Acetylcholinesterase (Electrophorus electricus) (UniProt O42275); test: Inhibition of electric eel AChE at 0.1 mM using acetylthiocholine iodide as substrate preincubated for 15 mins followed by substrate addition by spectrophotometric method relative to control
[8] = target: Cholinesterase (Equus caballus) (UniProt P81908); test: Inhibition of horse serum BChE at 0.1 mM using butyrylcholine chloride as substrate preincubated for 15 mins followed by substrate addition by spectrophotometric method relative to control
[9] = target: Cholinesterase (Equus caballus, UniProt P81908); test: Inhibition of horse serum BChE using butyrylcholine chloride as substrate preincubated for 15 mins followed by substrate addition by spectrophotometric method
Chain of Cholinesterase (P81908 whole entry): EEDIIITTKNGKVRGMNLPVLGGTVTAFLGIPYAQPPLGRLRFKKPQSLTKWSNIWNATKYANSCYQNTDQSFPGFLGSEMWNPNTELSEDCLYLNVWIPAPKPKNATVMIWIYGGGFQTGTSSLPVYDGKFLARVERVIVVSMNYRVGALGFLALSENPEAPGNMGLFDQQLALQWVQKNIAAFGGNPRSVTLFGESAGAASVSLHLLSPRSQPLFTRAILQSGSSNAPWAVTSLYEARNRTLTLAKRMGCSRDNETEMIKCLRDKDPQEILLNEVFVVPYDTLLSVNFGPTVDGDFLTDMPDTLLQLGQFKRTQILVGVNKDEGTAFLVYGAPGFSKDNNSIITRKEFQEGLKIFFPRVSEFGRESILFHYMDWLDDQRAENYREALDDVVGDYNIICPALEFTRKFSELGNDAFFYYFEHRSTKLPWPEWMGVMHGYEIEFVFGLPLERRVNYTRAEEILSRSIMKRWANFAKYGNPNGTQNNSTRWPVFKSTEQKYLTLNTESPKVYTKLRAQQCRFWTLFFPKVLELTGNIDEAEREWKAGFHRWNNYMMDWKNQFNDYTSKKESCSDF

Chain of Acetylcholinesterase (Electrophorus electricus) (O42275 24-633 limits assumed): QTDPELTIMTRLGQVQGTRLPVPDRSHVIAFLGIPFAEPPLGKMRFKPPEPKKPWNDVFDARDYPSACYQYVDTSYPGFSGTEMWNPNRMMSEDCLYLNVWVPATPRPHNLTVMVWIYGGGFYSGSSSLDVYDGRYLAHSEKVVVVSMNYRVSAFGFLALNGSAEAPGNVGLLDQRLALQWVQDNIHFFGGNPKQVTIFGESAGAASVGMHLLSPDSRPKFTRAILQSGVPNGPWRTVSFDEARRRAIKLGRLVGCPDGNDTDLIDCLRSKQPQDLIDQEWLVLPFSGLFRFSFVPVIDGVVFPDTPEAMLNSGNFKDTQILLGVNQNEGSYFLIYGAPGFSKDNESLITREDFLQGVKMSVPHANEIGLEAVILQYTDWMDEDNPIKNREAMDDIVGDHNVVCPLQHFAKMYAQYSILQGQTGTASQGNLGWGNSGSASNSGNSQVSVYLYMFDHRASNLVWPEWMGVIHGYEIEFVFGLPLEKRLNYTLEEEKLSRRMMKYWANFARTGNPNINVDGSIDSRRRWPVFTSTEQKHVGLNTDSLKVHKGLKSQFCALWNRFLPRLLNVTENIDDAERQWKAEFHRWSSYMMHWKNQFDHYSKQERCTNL
Chain of Cholinesterase (Equus caballus) (P81908 whole entry): as the sequence (P81908 whole entry) above
Chain of Acetylcholinesterase (O42275 whole entry): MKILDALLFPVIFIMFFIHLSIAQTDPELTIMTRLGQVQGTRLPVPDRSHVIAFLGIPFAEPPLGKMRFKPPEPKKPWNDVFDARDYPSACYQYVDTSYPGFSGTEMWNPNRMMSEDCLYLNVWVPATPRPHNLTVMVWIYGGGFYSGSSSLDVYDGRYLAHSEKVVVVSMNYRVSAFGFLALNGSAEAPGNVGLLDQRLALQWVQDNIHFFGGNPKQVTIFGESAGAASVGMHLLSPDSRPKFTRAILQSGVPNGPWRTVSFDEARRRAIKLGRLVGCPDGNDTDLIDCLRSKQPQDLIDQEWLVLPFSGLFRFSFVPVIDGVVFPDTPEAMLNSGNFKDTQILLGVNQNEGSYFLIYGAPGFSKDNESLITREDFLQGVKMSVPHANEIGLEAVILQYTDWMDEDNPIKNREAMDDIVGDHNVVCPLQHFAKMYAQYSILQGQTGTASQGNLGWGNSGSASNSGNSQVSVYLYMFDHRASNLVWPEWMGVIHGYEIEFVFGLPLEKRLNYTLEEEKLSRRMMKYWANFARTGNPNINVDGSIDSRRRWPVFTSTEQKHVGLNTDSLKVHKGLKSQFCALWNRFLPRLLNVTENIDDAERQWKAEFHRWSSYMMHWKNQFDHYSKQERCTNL

## O=C1O[C@H]([C@@H](O)CO)C(O)=C1O
[1]
  inhibition: 75%
[2]
  inhibition: 96%
[3]
  inhibition: 85%
[4]
  inhibition: 90%

## CCN1C[C@]2(C)CC[C@H](OC)[C@]34C1[C@@](C)([C@@H](OC)[C@H]23)[C@@]1(O)CC[C@H]2C[C@@H]4C1(O)C(=O)O2
[1]
  inhibition: 22.2%
[2]
  inhibition: 38.4%
[5]
  IC50: 5.4 µM
[6]
  inhibition: Dose-dependent effect
[3]
  inhibition: 28.3%
[7]
  inhibition: > 50%
[8]
  inhibition: > 50%
[9]
  IC50: 8.6 µM
[4]
  inhibition: 33.2%

## C=C1[C@H]2CC[C@@]3(C(=O)C[C@@H]4[C@@]5(C)CCC[C@@]4(CN(CCO)C5)[C@@H]3C2)[C@@H]1O
[1]
  inhibition: 20%
[2]
  inhibition: 45%
[5]
  IC50: 14.6 µM
[6]
  inhibition: Dose-dependent effect
[3]
  inhibition: 31.2%
[7]
  inhibition: > 50%
[8]
  inhibition: > 50%
[9]
  IC50: 18.1 µM
[4]
  inhibition: 40%

## C=C1C[C@]23C[C@@H]4[C@@H]5[C@@]6(C)CC(=O)C[C@]57C([C@@H]2[C@@H](O)[C@H]1[C@@H](O)[C@@H]37)N4C6
[1]
  inhibition: 12.1%
[2]
  inhibition: 65.5%
[5]
  IC50: 10.1 µM
[6]
  inhibition: Dose-dependent effect
[3]
  inhibition: 32%
[7]
  inhibition: > 50%
[8]
  inhibition: > 50%
[9]
  IC50: 15.6 µM
[4]
  inhibition: 40%

## CCN1C[C@]2(C)CC[C@H](OC)[C@]34C1[C@H]([C@@H](O)[C@H]23)[C@@]1(O)CC[C@H]2C[C@@H]4[C@@H]1C(=O)O2
[1]
  inhibition: 19.3%
[2]
  inhibition: 52.4%
[5]
  IC50: 6.5 µM
[6]
  inhibition: Dose-dependent effect
[3]
  inhibition: 39.3%
[7]
  inhibition: > 50%
[8]
  inhibition: > 50%
[9]
  IC50: 10.4 µM
[4]
  inhibition: 47.3%

## C=C1[C@H]2CC[C@@]3(CC[C@H]4[C@]5(CCC[C@]4(C)C4OCCN4C5)[C@@H]3C2)[C@@H]1O (stereo partly specified)
[1]
  inhibition: 11.8%
[2]
  inhibition: 60%
[5]
  IC50: 8.4 µM
[6]
  inhibition: Dose-dependent effect
[3]
  inhibition: 23.3%
[7]
  inhibition: > 50%
[8]
  inhibition: > 50%
[9]
  IC50: 13.1 µM
[4]
  inhibition: 49.4%

## C=C1[C@H]2CC[C@@]3(CC[C@@H]4[C@]5(C)CCC[C@]4(CN4CCO[C@@H]45)[C@@H]3C2)[C@@H]1O
[1]
  inhibition: 12.3%
[2]
  inhibition: 55.2%
[5]
  IC50: 10.3 µM
[6]
  inhibition: Dose-dependent effect
[3]
  inhibition: 30.1%
[7]
  inhibition: > 50%
[8]
  inhibition: > 50%
[9]
  IC50: 14.7 µM
[4]
  inhibition: 42.1%

## C=C1CC23C[C@H]4[C@@H]5[C@@]6(C)CC[C@H](O)[C@]57C([C@@H]2[C@@H](O)[C@H]1[C@@H](O)[C@@H]37)N4C6
[1]
  inhibition: 22.5%
[2]
  inhibition: 79.6%
[5]
  IC50: 6.5 µM
[6]
  inhibition: Dose-dependent effect
[3]
  inhibition: 27%
[7]
  inhibition: > 50%
[8]
  inhibition: > 50%
[9]
  IC50: 9.3 µM
[4]
  inhibition: 60.3%

## C=C1[C@H]2C[C@H]3C4N5C[C@]6(C)CCC[C@@]47[C@@H]6[C@@]5(O)CC3([C@@H]1O)[C@@H]7C2
[1]
  inhibition: 17%
[2]
  inhibition: 41.2%
[5]
  IC50: 12.8 µM
[6]
  inhibition: Dose-dependent effect
[3]
  inhibition: 25%
[7]
  inhibition: > 50%
[8]
  inhibition: > 50%
[9]
  IC50: 16.2 µM
[4]
  inhibition: 36%
